The numbers were not newly measured in patent US10695437B2, “Polycomplexes of poly-lysine compounds for preventing and/or combatting amyotrophic lateral sclerosis” (GEMAC, priority 2016, dated 2020), which cites them from elsewhere.

The subject of the series is ALS. To be noted: ALS patients.

Consider `Nc1nc2ccc(OC(F)(F)F)cc2s1` [Riluzole], for which the Side effects result was “numerous side effects (liver toxicity)”.
